{
  "source": "patent US12012388B1",
  "about": "“4-chloro-n'-(2-(5-(4-chlorophenyl)-1,3,4-oxadiazol-2-ylthio)acetoxy)benzimidamide as an antimicrobial compound” (KING FAISAL UNIVERSITY, priority 2023, dated 2024)",
  "format_in_all_cases": "cell-based",
  "key": {"Escherichia coli": {"system": "Escherichia coli", "assay": "Agar plate disc-diffusion, antibacterial activity (inhibition zone)", "settings": "nutrient agar, 37° C., 48 h, DMSO zone subtracted", "description": "(§1) The agar plate disc-diffusion method was applied. Sterilized filter papers (6 mm in diameter) were wetted with 10 μL of a solution of 4-chloro-N′-(2-(5-(4-chlorophenyl)-1,3,4-oxadiazol-2-ylthio)acetoxy)benzimidamide (3) to be tested, containing 10 mg/mL in DMSO, and the discs were allowed to air dry. The discs were then placed onto the surface of agar plates (nutrient agar for bacteria and Sabouraud's dextrose agar for fungi) seeded with the test organism. Each plate contained 15 mL of the agar medium, previously seeded with 0.2 mL of the broth culture of each organism pregrown for 18 hours. The plates were incubated at 37° C. for 48 h, and 72 h for fungi. The inhibition zones were measured in mm. Discs impregnated with DMSO were used as a control, and its inhibition zone was subtracted from the tested compound actual inhibition zone.\n(§2) The results of the antimicrobial testing can be observed in Tables 1 and 2, below, using ciprofloxacin as a reference."}, "Bacillus Cereus": {"system": "Bacillus Cereus", "assay": "Agar plate disc-diffusion, antibacterial activity (inhibition zone)", "settings": "nutrient agar, 37° C., 48 h, DMSO zone subtracted", "description": "as §1, §2"}, "Pseudomonas aeruginosa": {"system": "Pseudomonas aeruginosa", "assay": "Agar plate disc-diffusion, antibacterial activity (inhibition zone)", "settings": "nutrient agar, 37° C., 48 h, DMSO zone subtracted", "description": "as §1, §2"}, "Staphylococcus aureus": {"system": "Staphylococcus aureus", "assay": "Agar plate disc-diffusion, antibacterial activity (inhibition zone)", "settings": "nutrient agar, 37° C., 48 h, DMSO zone subtracted", "description": "as §1, §2"}, "[1]": {"system": "Chrysosporium keratinophilum", "assay": "Agar plate disc-diffusion, antifungal activity (inhibition zone)", "settings": "Sabouraud's dextrose agar, 37° C., 72 h, DMSO zone subtracted", "description": "as §1, §2"}, "Aspergillus flavus": {"system": "Aspergillus flavus", "assay": "Agar plate disc-diffusion, antifungal activity (inhibition zone)", "settings": "Sabouraud's dextrose agar, 37° C., 72 h, DMSO zone subtracted", "description": "as §1, §2"}, "[2]": {"settings": "A = concentration of comp. = 10,000 μL"}, "[3]": {"settings": "B = concentration of comp. = 30.000 μL"}, "[4]": {"settings": "C = concentration of comp. = 50,000 μL"}},
  "data": [
    {"compound": "N/C(=N\\OC(=O)CSc1nnc(-c2ccc(Cl)cc2)o1)c1ccc(Cl)cc1", "note": "[Compound 3, 4-chloro-N′-(2-(5-(4-chlorophenyl)-1,3,4-oxadiazol-2-ylthio)acetoxy)benzimidamide]", "values": [
      {"measurement": "inhibition zone, Escherichia coli, A", "setting": "Escherichia coli; [2]", "value": 27, "unit": "mm"},
      {"measurement": "inhibition zone, Escherichia coli, B", "setting": "Escherichia coli; [3]", "value": 34, "unit": "mm"},
      {"measurement": "inhibition zone, Escherichia coli, C", "setting": "Escherichia coli; [4]", "value": 41, "unit": "mm"},
      {"measurement": "inhibition zone, Bacillus Cereus, A", "setting": "Bacillus Cereus; [2]", "value": 20, "unit": "mm"},
      {"measurement": "inhibition zone, Bacillus Cereus, B", "setting": "Bacillus Cereus; [3]", "value": 26, "unit": "mm"},
      {"measurement": "inhibition zone, Bacillus Cereus, C", "setting": "Bacillus Cereus; [4]", "value": 39, "unit": "mm"},
      {"measurement": "inhibition zone, Pseudomonas aeruginosa, A", "setting": "Pseudomonas aeruginosa; [2]", "value": 21, "unit": "mm"},
      {"measurement": "inhibition zone, Pseudomonas aeruginosa, B", "setting": "Pseudomonas aeruginosa; [3]", "value": 24, "unit": "mm"},
      {"measurement": "inhibition zone, Pseudomonas aeruginosa, C", "setting": "Pseudomonas aeruginosa; [4]", "value": 36, "unit": "mm"},
      {"measurement": "inhibition zone, Staphylococcus aureus, A", "setting": "Staphylococcus aureus; [2]", "value": 19, "unit": "mm"},
      {"measurement": "inhibition zone, Staphylococcus aureus, B", "setting": "Staphylococcus aureus; [3]", "value": 24, "unit": "mm"},
      {"measurement": "inhibition zone, Staphylococcus aureus, C", "setting": "Staphylococcus aureus; [4]", "value": 37, "unit": "mm"},
      {"measurement": "inhibition zone, Chrysosporium keratinophilum, A", "setting": "[1]; [2]", "value": 25, "unit": "mm"},
      {"measurement": "inhibition zone, Chrysosporium keratinophilum, B", "setting": "[1]; [3]", "value": 27, "unit": "mm"},
      {"measurement": "inhibition zone, Chrysosporium keratinophilum, C", "setting": "[1]; [4]", "value": 40, "unit": "mm"},
      {"measurement": "inhibition zone, Aspergillus flavus, A", "setting": "Aspergillus flavus; [2]", "value": 24, "unit": "mm"},
      {"measurement": "inhibition zone, Aspergillus flavus, B", "setting": "Aspergillus flavus; [3]", "value": 26, "unit": "mm"},
      {"measurement": "inhibition zone, Aspergillus flavus, C", "setting": "Aspergillus flavus; [4]", "value": 35, "unit": "mm"}
    ]}
  ]
}
